Results taken from patent US20240408119A1, “DELIVERY OF THERAPEUTIC ALKALOID COMPOUNDS” (priority 2022, published 2024).
Read-outs that look alike come from different tables or passages of the source.

What was measured:
[1] = Metabolic Stability in Human Hepatocytes; assay type: in vitro ADME; conditions: cryopreserved human hepatocytes, 37° C.
Protocol: A 2.5 uL aliquot of 100 μM test compound was incubated with 247.5 uL of cryopreserved hepatocytes suspended in serum-free incubation medium at 5×10^5 viable cells/mL. The mixture was incubated at 37° C. and shaken at 500 rpm for the designated time points (0.5, 15, 30, 60, 90, or 120 min). At each time point, 25 μL aliquot of incubation mixture was transferred to 125 μL of cold acetonitrile containing internal standard, followed by centrifugation for 30 min at 3,220 g. 100 μL of supernatant was mixed with 100 μL of distilled water for analysis by LC-MS/MS. Peak areas were determined from extracted ion chromatograms and in vitro half-life (t1/2) was determined from the concentration vs time regression slope, in vitro t1/2=0.693/k. Conversion of the in vitro t1/2 (in min) into the in vitro intrinsic clearance (in vitro CLint, in μL/min/10^6 cells) is done using: in vitro CLint=kV/N.

[2] = Plasma Stability Assay (Example A3), rat plasma; assay type: in vitro ADME; conditions: prodrug remaining, 10 μM, 37° C.
Text: (§1) The data is represented in the table below.

[3] = Hydrolysis Assay - Condition 1 (SGF); assay type: physicochemical; conditions: SGF with pepsin pH 1.5, 37° C., 0.5 mM
Protocol: 50 μL of compound (10 mM) in DMSO was diluted into 950 μL of Simulated Gastric Fluid (SGF) with pepsin (pH 1.5) to a final concentration of 0.5 mM. The hydrolysis kinetics were conducted at 37° C. and measured by LCMS at a certain time interval.
The corresponding LCMS chromatogram were recorded and the conversions were calculated by integration of each peak.
• 1) LCMS spectra were obtained using Agilent 1200G1956A or SHIMADZU LCMS-2020. Standard LCMS conditions were as follows (running time 1.55 minutes): • Acidic condition: Mobile Phase A: 0.0375% TFA in water (v/v). Mobile Phase B: 0.01875% TFA in acetonitrile (v/v); Column: Kinetex EVO C18 30*2.1 mm, 5 μm. • Basic condition: Mobile Phase A: 0.025% NH3·H2O in water (v/v). Mobile Phase B: Acetonitrile; Column: Kinetex EVO C18 2.1×30 mm, 5 μm. • 2) Conversion (%)=peak area 1/(peak area 1+peak area 2)*100%, peak area 1 is the integration of hydrolyzed product, peak area 2 is the integration of starting material.

[4] = assay type: in vitro ADME, human; conditions: prodrug remaining, 5 μM, 37° C.
Protocol: (§2) Each test was carried out in duplicate for each time point; 0 min, 15 min, 30 min, 60 min, 120, 240 min. […]

[5] = in vivo; assay type: in vivo, mouse; conditions: for half-life / C0 / clearance / Vd: iv, 2 mg/kg; for C0: back extrapolated; for clearance: flagged NR (not reportable, very high vs liver blood flow); for Vd: read-out: Vss
Protocol: Total fifteen male mice were used in this study with n=3 mice/time point with sparse sampling study design. Animals were administered through intravenous route with solution formulation of 323 at 2 mg/kg dose.
The extraction procedure for plasma/brain samples and the spiked plasma/brain calibration standards were identical (PMSF Stabilized Plasma and Brain used for Preparation of calibration standards): A 20 μL of study sample plasma/brain or spiked plasma/brain calibration standard was added to individual pre-labeled micro-centrifuge tubes followed by 200 μL of internal standard prepared in acetonitrile (Rosuvastatin+Cetrizine, 50 ng/mL) was added except for blank, where 200 μL of acetonitrile was added. Samples were vortexed for 5 minutes. Samples were centrifuged for 10 minutes at a speed of 4000 rpm at 4° C. Following centrifugation, 200 μL of clear supernatant was transferred in 96 well plates and analyzed using LC-MS/MS.
Brain samples were diluted (1-part of tissue: 2-part of buffer) and homogenized. The homogenate was submitted for bioanalysis and the concentrations (ng/mL) received were corrected with dilution factor (3×) and the final reported concentrations were represented in ng/g.
The plasma and brain concentration-time data of 323 and 001 were used for the pharmacokinetic analysis.
LLOQ: 323: 1.02 ng/mL for plasma and brain 001: 1.01 ng/mL for plasma and brain

[6] = assay type: in vitro ADME, mouse; conditions: prodrug remaining, 5 μM, 37° C.
Protocol: as §2

[7] = molecular target: SERT (Homo sapiens (Human), UniProt P31645); test: SERT Inhibition Assay (Neurotransmitter Transporter Fluorescence assay, stable 5HTT cells); assay type: cell-based
Protocol: SERT inhibition was measured using a Neruotransmitter Transportation Fluorescence assay. Briefly, stable 5HTT cells were prepared in a 384 microwell plate. Compounds were prepared by in assay buffer (20 mM HEPES, 0.1% BSA). The compounds were added to the plated cells and incubated for 30 minutes at 37° C. 25 μL of dye solution (Molecular Devices Neurotransmitter Transporter Uptake Assay Kit) was added per well and incubated for 30 minutes at 37° C. The plates were then read on a plate reader.

[8] = Plasma Stability Assay (Example A3), human plasma; assay type: in vitro ADME; conditions: prodrug remaining, 10 μM, 37° C.
Text: as §1

[9] = male, C57BL/6, mouse, in vivo, 323 in brain after 323 IV 2 mg/kg
[10] = male, C57BL/6, mouse, in vivo, 323 in plasma after 323 IV 2 mg/kg
[11] = male, C57BL/6, mouse, in vivo, 323 after 323 IV 2 mg/kg, read-out: Brain concentrations (mean)
[12] = male, C57BL/6, mouse, in vivo, 323 after 323 IV 2 mg/kg, read-out: Plasma concentrations (mean)

With `COc1ccc([C@@]23CCC(OP4(=O)OCC(C)(C)CO4)=C[C@@H]2N(C)CC3)cc1OC` [Compound 323, 2-[[(3aS,7aS)-3a-(3,4-dimethoxyphenyl)-1-methyl-3,4,5,7a-tetrahydro-2H-indol-6-yl]oxy]-5,5-dimethyl-1,3,2λ^5-dioxaphosphinane 2-oxide] the half-life at 1 μM [1] was 327 min, the hepatocyte CLint at 1 μM [1] was 4.2 µL/min/1e6 cells and the “Rat Plasma Prodrug (%)” value ([2]; 0 min) was 100.00%. For the same molecule, the “Rat Plasma Prodrug (%)” value ([2]; 10 min) was >99%, the “Rat Plasma Prodrug (%)” value ([2]; 30 min) was 95.5% and the “Rat Plasma Prodrug (%)” value ([2]; 60 min) was 82.0%. For the same molecule, the “Rat Plasma Prodrug (%)” value ([2]; 120 min) was 58.8%, the “Rat Plasma Prodrug (%)” value ([2]; 240 min) was 34.0% and the “Condition 1 Conversion (%)” value ([3]; 1 min) was 0%. For the same molecule, the “Condition 1 Conversion (%)” value ([3]; 5 min) was 0%, the “Condition 1 Conversion (%)” value ([3]; 30 min) was 0% and the “Condition 1 Conversion (%)” value ([3]; 1 h) was 0%. For the same molecule, the “Condition 1 Conversion (%)” value ([3]; 4 h) was 0%, the “Condition 1 Conversion (%)” value ([3]; 24 h) was 0% and the “Human Plasma Prodrug (%)” value ([4]; 0 min) was 100%. For the same molecule, the “Human Plasma Prodrug (%)” value ([4]; 15 min) was 76.6%, the “Human Plasma Prodrug (%)” value ([4]; 30 min) was 64.5% and the “Human Plasma Prodrug (%)” value ([4]; 60 min) was 38.1%. The “Human Plasma Prodrug (%)” value ([4]; 120 min) was 12.8%, the “Human Plasma Prodrug (%)” value ([4]; 240 min) was 1.60% and the “brain concentrations quantifiable up to” value ([5]; 323 after 323 IV 2 mg/kg) was ≤ 0.5 h. The “plasma concentrations quantifiable up to” value ([5]; 323 after 323 IV 2 mg/kg) was “up to 2 h”, the AUClast ([5]; 323 in brain after 323 IV 2 mg/kg) was 6.56 ng·h/g and the half-life [5, 9] was 10.8 min. The C0 [5, 9] was 33.9 ng/mL, the clearance [5, 9] was 4350 mL/min/kg and the Vd [5, 9] was 61.7 L/kg. It also gave a half-life [5, 10] of 10.2 min, a C0 [5, 10] of 609 ng/mL and a clearance [5, 10] of 344 mL/min/kg. It also gave a Vd [5, 10] of 3.25 L/kg, a concentration at 0.08 h [5, 11] of 22.1 ng/g and a concentration at 0.08 h [5, 12] of 332 ng/mL. For the same molecule, the concentration at 0.25 h [5, 11] was 8.97 ng/g, the concentration at 0.25 h [5, 12] was 91.6 ng/mL and the concentration at 0.5 h ([5]; male, C57BL/6, mouse, in vivo, 323 after 323 IV 2 mg/kg, average of two values, read-out: Brain concentrations (mean)) was 4.43 ng/g. For the same molecule, the concentration at 0.5 h [5, 12] was 26.3 ng/mL, the concentration at 1 h ([5]; male, C57BL/6, mouse, in vivo, 323 after 323 IV 2 mg/kg, 1 h, read-out: Plasma concentrations (mean)) was 4.05 ng/mL and the concentration at 2 h ([5]; male, C57BL/6, mouse, in vivo, 323 after 323 IV 2 mg/kg, 2 h, single value, excluded from data analysis, read-out: Plasma concentrations (mean)) was 1.03 ng/mL. The Kp ([5]; male, C57BL/6, mouse, in vivo, 323 after 323 IV 2 mg/kg, read-out: Brain-Kp) was 0.07, the AUC(0-t) [5, 10] was 96 ng·h/mL and the “Mouse Plasma Prodrug (%)” value ([6]; 0 min) was 100.0%. The “Mouse Plasma Prodrug (%)” value ([6]; 15 min) was >99%, the “Mouse Plasma Prodrug (%)” value ([6]; 30 min) was >99% and the “Mouse Plasma Prodrug (%)” value ([6]; 60 min) was 94.1%. The “Mouse Plasma Prodrug (%)” value ([6]; 120 min) was 71.9%, the “Mouse Plasma Prodrug (%)” value ([6]; 240 min) was 50.3% and the IC50 [7] was 62.7 nM. The “Human Plasma Prodrug (%)” value ([8]; 0 min) was 100.00%, the “Human Plasma Prodrug (%)” value ([8]; 10 min) was 86.9% and the “Human Plasma Prodrug (%)” value ([8]; 30 min) was 70.8%. For the same molecule, the “Human Plasma Prodrug (%)” value ([8]; 60 min) was 52.7%, the “Human Plasma Prodrug (%)” value ([8]; 120 min) was 27.0% and the “Human Plasma Prodrug (%)” value ([8]; 240 min) was 9.3%.
